Reference: US20260200897A1, “4-((5-(3-(4-(PYRIDIN-2-YL)CYCLOPENTYL)-1H-PYRAZOL-3-YL)AMINO)-BENZENESULFONAMIDE DERIVATIVES AND SIMILAR COMPOUNDS AS CDK INHIBITORS FOR THE TREATMENT OF CANCER” (BeOne Medicines I GmbH, priority 2023, published 2026)
pIC50: −log10 of the molar value.

Key:
CDK1/Cyclin B1 = CDK1/Cyclin B1 (Homo sapiens, UniProt P06493); assay: CDK1/Cyclin B1 TR-FRET biochemical assay, 0.015 mM ATP; conditions: 0.15 μM Rb (Ser780)-biotin substrate, 120 min reaction, Table 1
CDK2/Cyclin E1 = CDK2/Cyclin E1 (Homo sapiens, UniProt P24941); assay: CDK2/Cyclin E1 TR-FRET biochemical assay, 0.060 mM ATP; conditions: 0.15 μM Rb (Ser780)-biotin substrate, 120 min reaction, Table 1

CDK1/Cyclin B1, sequence (P06493 whole entry): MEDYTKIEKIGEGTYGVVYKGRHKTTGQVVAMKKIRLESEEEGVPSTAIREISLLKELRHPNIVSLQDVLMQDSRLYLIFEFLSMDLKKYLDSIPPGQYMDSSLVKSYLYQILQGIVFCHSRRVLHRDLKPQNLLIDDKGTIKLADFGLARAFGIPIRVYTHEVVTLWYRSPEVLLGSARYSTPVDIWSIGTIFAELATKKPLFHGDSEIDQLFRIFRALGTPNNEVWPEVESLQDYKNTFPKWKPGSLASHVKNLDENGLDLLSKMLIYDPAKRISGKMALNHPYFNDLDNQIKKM
CDK1/Cyclin B1, sequence (P14635 whole entry partner): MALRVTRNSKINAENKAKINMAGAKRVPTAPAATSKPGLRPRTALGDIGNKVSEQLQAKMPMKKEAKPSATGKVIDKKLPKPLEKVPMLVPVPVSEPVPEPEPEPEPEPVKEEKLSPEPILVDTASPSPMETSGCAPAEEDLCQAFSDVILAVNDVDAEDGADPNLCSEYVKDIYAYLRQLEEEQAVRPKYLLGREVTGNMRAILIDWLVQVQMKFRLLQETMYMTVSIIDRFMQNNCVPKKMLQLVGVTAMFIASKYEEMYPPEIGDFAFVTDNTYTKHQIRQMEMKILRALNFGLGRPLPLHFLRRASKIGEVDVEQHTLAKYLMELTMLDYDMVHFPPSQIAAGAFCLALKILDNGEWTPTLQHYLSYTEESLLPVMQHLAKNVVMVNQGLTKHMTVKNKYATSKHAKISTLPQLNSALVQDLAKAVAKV

Row | SMILES | pIC50 (CDK1/Cyclin B1) | pIC50 (CDK2/Cyclin E1)
1 | CC(C)c1csnc1O[C@@H]1CC[C@H](c2cc(Nc3ccc4c(c3F)CNS4(=O)=O)n[nH]2)C1 (relative stereo) [Example 55, cis-4-fluoro-5-((5-(3-((4-isopropylisothiazol-3-yl)oxy)cyclopentyl)-1H-pyrazol-3-yl)amino)-2,3-dihydrobenzo[d]isothiazole 1,1-dioxide] | 6.31 | 7.85
2 | CC(C)n1cnnc1O[C@@H]1CC[C@H](c2cc(Nc3ccc4c(c3F)CNS4(=O)=O)n[nH]2)C1 (relative stereo) [Example 57, cis-4-fluoro-5-((5-(3-((4-isopropyl-4H-1,2,4-triazol-3-yl)oxy)cyclopentyl)-1H-pyrazol-3-yl)amino)-2,3-dihydrobenzo[d]isothiazole 1,1-dioxide] | 5.08 | 6.47
3 | CC1(n2cnnc2O[C@@H]2CC[C@H](c3cc(Nc4ccc5c(c4F)CNS5(=O)=O)n[nH]3)C2)CC1 (relative stereo) [Example 58, cis-4-fluoro-5-((5-(3-((4-(1-methylcyclopropyl)-4H-1,2,4-triazol-3-yl)oxy)cyclopentyl)-1H-pyrazol-3-yl)amino)-2,3-dihydrobenzo[d]isothiazole 1,1-dioxide] | 5.14 | 6.57
4 | CC(C)(C)n1cnnc1O[C@@H]1CC[C@H](c2cc(Nc3ccc4c(c3F)CNS4(=O)=O)n[nH]2)C1 (relative stereo) [Example 59, (cis)-5-((5-(3-((4-(tert-butyl)-4H-1,2,4-triazol-3-yl)oxy)cyclopentyl)-1H-pyrazol-3-yl)amino)-4-fluoro-2,3-dihydrobenzo[d]isothiazole 1,1-dioxide] | 6.25 | 8.12
5 | CC(C)c1cn[nH]c1O[C@@H]1CC[C@H](c2cc(Nc3ccc4c(c3F)CNS4(=O)=O)n[nH]2)C1 (relative stereo) [Example 60, cis-4-fluoro-5-((5-(3-((4-isopropyl-1H-pyrazol-5-yl)oxy)cyclopentyl)-1H-pyrazol-3-yl)amino)-2,3-dihydrobenzo[d]isothiazole 1,1-dioxide] | 6.14 | 7.92
6 | CC(C)(C)c1cn[nH]c1O[C@@H]1CC[C@H](c2cc(Nc3ccc4c(c3F)CNS4(=O)=O)n[nH]2)C1 (relative stereo) [Example 61, cis-5-((5-(3-((4-(tert-butyl)-1H-pyrazol-5-yl)oxy)cyclopentyl)-1H-pyrazol-3-yl)amino)-4-fluoro-2,3-dihydrobenzo[d]isothiazole 1,1-dioxide] | 7.25 | 9.00
7 | O=S1(=O)NCc2c1ccc(Nc1cc([C@H]3CC[C@@H](Oc4ccn[nH]4)C3)[nH]n1)c2F (relative stereo) [Example 62, cis-5-((5-(3-((1H-pyrazol-5-yl)oxy)cyclopentyl)-1H-pyrazol-3-yl)amino)-4-fluoro-2,3-dihydrobenzo[d]isothiazole 1,1-dioxide] | 6.24 | 7.62
8 | Cn1nccc1O[C@@H]1CC[C@H](c2cc(Nc3ccc4c(c3F)CNS4(=O)=O)n[nH]2)C1 (relative stereo) [Example 63, cis-4-fluoro-5-((5-(3-((1-methyl-1H-pyrazol-5-yl)oxy)cyclopentyl)-1H-pyrazol-3-yl)amino)-2,3-dihydrobenzo[d]isothiazole 1,1-dioxide] | 5.51 | 7.05
9 | Cn1ccc(O[C@@H]2CC[C@H](c3cc(Nc4ccc5c(c4F)CNS5(=O)=O)n[nH]3)C2)n1 (relative stereo) [Example 64, cis-4-fluoro-5-((5-(3-((1-methyl-1H-pyrazol-3-yl)oxy)cyclopentyl)-1H-pyrazol-3-yl)amino)-2,3-dihydrobenzo[d]isothiazole 1,1-dioxide] | 5.72 | 6.53
10 | Cc1cc(O[C@@H]2CC[C@H](c3cc(Nc4ccc5c(c4F)CNS5(=O)=O)n[nH]3)C2)[nH]n1 (relative stereo) [Example 65, cis-4-fluoro-5-((5-(3-((3-methyl-1H-pyrazol-5-yl)oxy)cyclopentyl)-1H-pyrazol-3-yl)amino)-2,3-dihydrobenzo[d]isothiazole 1,1-dioxide] | 5.87 | 7.15
11 | Cc1cc(O[C@@H]2CC[C@H](c3cc(Nc4ccc5c(c4F)CNS5(=O)=O)n[nH]3)C2)n(-c2ccccc2)n1 (relative stereo) [Example 66, cis-4-fluoro-5-((5-(3-((3-methyl-1-phenyl-1H-pyrazol-5-yl)oxy)cyclopentyl)-1H-pyrazol-3-yl)amino)-2,3-dihydrobenzo[d]isothiazole 1,1-dioxide] | < 5.00 | 5.60
12 | O=S1(=O)NCc2c1ccc(Nc1cc([C@H]3CC[C@@H](Oc4n[nH]c5ccccc45)C3)[nH]n1)c2F (relative stereo) [Example 67, cis-5-((5-(3-((1H-indazol-3-yl)oxy)cyclopentyl)-1H-pyrazol-3-yl)amino)-4-fluoro-2,3-dihydrobenzo[d]isothiazole 1,1-dioxide] | 5.67 | 7.27
13 | CCOC(=O)c1cn[nH]c1O[C@H]1CC[C@@H](c2cc(Nc3ccc4c(c3F)CNS4(=O)=O)n[nH]2)C1 (relative stereo) [Example 68, cis-ethyl 5-((3-(3-((4-fluoro-1,1-dioxido-2,3-dihydrobenzo[d]isothiazol-5-yl)amino)-1H-pyrazol-5-yl)cyclopentyl)oxy)-1H-pyrazole-4-carboxylate] | 6.70 | 7.92
14 | O=S1(=O)NCc2c1ccc(Nc1cc([C@H]3CC[C@@H](Oc4cc(C(F)(F)F)n[nH]4)C3)[nH]n1)c2F (relative stereo) [Example 69, cis-4-fluoro-5-((5-(3-((3-(trifluoromethyl)-1H-pyrazol-5-yl)oxy)cyclopentyl)-1H-pyrazol-3-yl)amino)-2,3-dihydrobenzo[d]isothiazole 1,1-dioxide] | < 5.00 | 6.08
15 | O=S1(=O)NCc2c1ccc(Nc1cc([C@H]3CC[C@@H](Oc4ccnn4-c4ccccc4)C3)[nH]n1)c2F (relative stereo) [Example 70, (cis)-4-fluoro-5-((5-(3-((1-phenyl-1H-pyrazol-5-yl)oxy)cyclopentyl)-1H-pyrazol-3-yl)amino)-2,3-dihydrobenzo[d]isothiazole 1,1-dioxide] | < 5.00 | < 5.00
16 | CC(C)(C)c1cc(O[C@@H]2CC[C@H](c3cc(Nc4ccc5c(c4F)CNS5(=O)=O)n[nH]3)C2)[nH]n1 (relative stereo) [Example 71, cis-5-((5-(3-((3-(tert-butyl)-1H-pyrazol-5-yl)oxy)cyclopentyl)-1H-pyrazol-3-yl)amino)-4-fluoro-2,3-dihydrobenzo[d]isothiazole 1,1-dioxide] | 5.11 | 6.41
17 | CC(C)c1n[nH]cc1O[C@@H]1CC[C@H](c2cc(Nc3ccc4c(c3F)CNS4(=O)=O)n[nH]2)C1 (relative stereo) [Example 73, cis-4-fluoro-5-((5-(3-((3-isopropyl-1H-pyrazol-4-yl)oxy)cyclopentyl)-1H-pyrazol-3-yl)amino)-2,3-dihydrobenzo[d]isothiazole 1,1-dioxide] | 6.35 | 7.92
18 | Cc1n[nH]c(C)c1O[C@@H]1CC[C@H](c2cc(Nc3ccc4c(c3F)CNS4(=O)=O)n[nH]2)C1 (relative stereo) [Example 75, cis-5-((5-(3-((3,5-dimethyl-1H-pyrazol-4-yl)oxy)cyclopentyl)-1H-pyrazol-3-yl)amino)-4-fluoro-2,3-dihydrobenzo[d]isothiazole 1,1-dioxide] | 5.97 | 7.28
19 | O=S1(=O)NCc2c1ccc(Nc1cc([C@H]3CC[C@@H](Oc4cn[nH]c4)C3)[nH]n1)c2F (relative stereo) [Example 76, cis-5-((5-(3-((1H-pyrazol-4-yl)oxy)cyclopentyl)-1H-pyrazol-3-yl)amino)-4-fluoro-2,3-dihydrobenzo[d]isothiazole 1,1-dioxide] | 5.79 | 7.28
20 | Cn1cc(O[C@@H]2CC[C@H](c3cc(Nc4ccc5c(c4F)CNS5(=O)=O)n[nH]3)C2)cn1 (relative stereo) [Example 77, cis-4-fluoro-5-((5-(3-((1-methyl-1H-pyrazol-4-yl)oxy)cyclopentyl)-1H-pyrazol-3-yl)amino)-2,3-dihydrobenzo[d]isothiazole 1,1-dioxide] | < 5.00 | 6.28
21 | CC(C)n1cc(O[C@@H]2CC[C@H](c3cc(Nc4ccc5c(c4F)CNS5(=O)=O)n[nH]3)C2)cn1 (relative stereo) [Example 78, cis-4-fluoro-5-((5-(3-((1-isopropyl-1H-pyrazol-4-yl)oxy)cyclopentyl)-1H-pyrazol-3-yl)amino)-2,3-dihydrobenzo[d]isothiazole 1,1-dioxide] | < 5.00 | 6.51
22 | Cc1n[nH]cc1O[C@@H]1CC[C@H](c2cc(Nc3ccc4c(c3F)CNS4(=O)=O)n[nH]2)C1 (relative stereo) [Example 79, cis-4-fluoro-5-((5-(3-((3-methyl-1H-pyrazol-4-yl)oxy)cyclopentyl)-1H-pyrazol-3-yl)amino)-2,3-dihydrobenzo[d]isothiazole 1,1-dioxide] | 6.31 | 8.00
23 | CC(C)N1CCN([C@H]2CC[C@@H](c3cc(Nc4ccc5c(c4F)CNS5(=O)=O)n[nH]3)C2)C1=O (relative stereo) [Example 81, cis-1-(3-(3-((4-fluoro-1,1-dioxido-2,3-dihydrobenzo[d]isothiazol-5-yl)amino)-1H-pyrazol-5-yl)cyclopentyl)-3-isopropylimidazolidin-2-one] | < 5.00 | 5.93
24 | CC(C)N1CC(=O)N([C@H]2CC[C@@H](c3cc(Nc4ccc5c(c4F)CNS5(=O)=O)n[nH]3)C2)C1=O (relative stereo) [Example 82, cis-3-(3-(3-((4-fluoro-1,1-dioxido-2,3-dihydrobenzo[d]isothiazol-5-yl)amino)-1H-pyrazol-5-yl)cyclopentyl)-1-isopropylimidazolidine-2,4-dione] | < 5.00 | 6.22
25 | CC(C)n1ccn([C@H]2CC[C@@H](c3cc(Nc4ccc5c(c4F)CNS5(=O)=O)n[nH]3)C2)c1=O (relative stereo) [Example 83, cis-1-(3-(3-((4-fluoro-1,1-dioxido-2,3-dihydrobenzo[d]isothiazol-5-yl)amino)-1H-pyrazol-5-yl)cyclopentyl)-3-isopropyl-1,3-dihydro-2H-imidazol-2-one] | < 5.00 | 6.15
